Measured values reported in patent US20170007561A1, “CONTEMPORANEOUS, HETEROGENEOUSLY-ORIENTED, MULTI-TARGETED THERAPEUTIC MODIFICATION AND/OR MODULATION OF DISEASE BY ADMINISTRATION OF SULFUR-CONTAINING, AMINO ACID-SPECIFIC SMALL MOLECULES” (BioNumerik Pharmaceuticals, Inc., priority 2014, published 2017).
Entries after “also recorded” stand apart in the source; their conditions may differ. Blank lines part the entries; values can stand above or below the molecule they belong to.

Columns and labels:
[1] = system: Trx/TrxR system in human cancer cells; conditions: cited from earlier work
[2] = system: mammalian thioredoxin reductase (TrxR); conditions: cited from earlier work
TrxR/Trx system = molecular target: T1, TrxR/Trx system (Homo sapiens, UniProt P10599); experiment: TrxR/Trx NADPH oxidation assay; assay type: biochemical; conditions: increasing concentrations of test substance
T1 construct: purchased Sigma (Trx); American Diagnostica (bovine TrxR)
T1 sequence (P10599 1-105): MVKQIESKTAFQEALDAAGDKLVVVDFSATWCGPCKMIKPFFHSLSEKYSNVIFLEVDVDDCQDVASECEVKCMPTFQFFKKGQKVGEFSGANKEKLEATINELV
Excerpt: (Note: error bars are small and may be obscured by the symbols). […] (Note: error bars were omitted but assays were run in quadruplicate with typical errors of 5-8% between individual replicates). […] Panel D: Initial velocity reaction rates corresponding to progress curves shown in Panel C. With time, Trx-mesna and Trx-GSH are converted back to apo-Trx by Trx reductase (see also, FIG. 69, Panel E).

bovine TrxR = molecular target: T2, bovine TrxR (Bos taurus, UniProt O62768); experiment: TrxR NADPH oxidation assay without Trx (Reaction A); assay type: biochemical; conditions: TrxR alone + NADPH, no Trx; disulfide 0.5 mM
T2 construct: purchased American Diagnostica
T2 sequence (O62768 1-499): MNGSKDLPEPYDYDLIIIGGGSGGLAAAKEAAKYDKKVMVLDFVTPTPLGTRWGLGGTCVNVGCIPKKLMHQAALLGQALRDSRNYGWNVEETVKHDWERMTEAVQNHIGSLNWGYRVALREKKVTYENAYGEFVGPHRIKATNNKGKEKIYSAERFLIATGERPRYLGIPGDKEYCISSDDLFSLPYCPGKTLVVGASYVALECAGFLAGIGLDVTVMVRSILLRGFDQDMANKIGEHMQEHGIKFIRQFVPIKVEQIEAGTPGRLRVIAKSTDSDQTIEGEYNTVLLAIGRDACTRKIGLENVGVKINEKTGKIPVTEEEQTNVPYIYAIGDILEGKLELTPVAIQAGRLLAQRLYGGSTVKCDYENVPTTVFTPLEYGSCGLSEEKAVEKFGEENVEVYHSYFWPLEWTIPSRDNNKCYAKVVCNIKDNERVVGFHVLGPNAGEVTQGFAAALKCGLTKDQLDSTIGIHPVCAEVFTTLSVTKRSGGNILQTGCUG

[3] = molecular target: Recombinant human thioredoxin (Trx) (human) (UniProt P10599)
some cell lines = experiment: In vitro cytotoxicity of mesna; conditions: ≦400 μM; unpublished data
[4] = system: bovine brain microtubule protein (α-/β-tubulin); experiment: Microtubule protein polymerization assay (OD350); assay type: biochemical; conditions: for effect on GTP promoted microtubule protein polymerization: mesna, even at 10 mM
[5] = read-out: Cmax for mesna; 41 g/m^2 Tavocept; cited from earlier work
[6] = system: non-small cell lung cancer; conditions: patients greater than or equal to 65 years, carboplatin and paclitaxel chemotherapy; cited from earlier work
[7] = molecular target: T3, human Trx with rat liver TrxR (Homo sapiens, UniProt P10599); experiment: TrxR/Trx insulin disulfide reduction assay (NADPH oxidation 340 nm, insulin B chain precipitation 650 nm); assay type: biochemical; conditions: modified Trx purified from free Tavocept or glutathione disulfide
T3 sequence (P10599 1-105): T1 sequence (P10599 1-105)

Molecule: CCOC(=O)NC1=C(N2CC2)C(=O)C(NC(=O)OCC)=C(N2CC2)C1=O [Diaziquone]
Inhibition of Trx/TrxR system and cellular ribonucleotide reductase activity [1]: inhibit the Trx/TrxR system resulting in a concentration-dependent inhibition of cellular ribonucleotide reductase activity

Molecule: COc1cccc2c1C(=O)c1c(O)c3c(c(O)c1C2=O)C[C@@](O)(C(=O)CO)C[C@@H]3O[C@H]1C[C@H](N)[C@H](O)[C@H](C)O1 [doxorubicin]
Inhibition of Trx/TrxR system and cellular ribonucleotide reductase activity [1]: inhibit the Trx/TrxR system resulting in a concentration-dependent inhibition of cellular ribonucleotide reductase activity | Inhibition of TrxR [2]: not inhibitors of TrxR

Molecule: N[C@@H](CCC(=O)N[C@@H](CSSCCS(=O)(=O)O)C(=O)NCC(=O)O)C(=O)O [MSSG, mesna-glutathione disulfide]
NADPH oxidation by TrxR and Trx (TrxR/Trx system): increases | NADPH Oxidation, Reaction A (bovine TrxR): 0.3 ± 0.02 nmol/min/mL

NADPH Oxidation (nmoles/min/mL) (nmoles/min/mL) (insulin): 18
Molecule: Recombinant human thioredoxin (Trx) (from UniProt P10599) (enzyme)

NADPH Oxidation (nmoles/min/mL) (nmoles/min/mL) (insulin): 0.3
Molecule: bovine Trx reductase (TrxR) (from UniProt O62768) (enzyme)

rate of NADPH oxidation at 340 nm in the Prx assay (% reduction in rate) [3]: 43
Molecule: Tavocept-modified Prx (Prx-mesna) (from UniProt Q06830) (enzyme)

Molecule: NC(CSSCCS(=O)(=O)O)C(=O)O (centres unmarked) [MSSC, mesna-cysteine disulfide]
NADPH oxidation by TrxR and Trx (TrxR/Trx system): increases | NADPH Oxidation, Reaction A (bovine TrxR): 0.2 ± 0.03 nmol/min/mL

Molecule: O=S(=O)([O-])CCS.[Na+] [mesna, 2-mercapto ethane sulfonate]
Cytotoxicity in vitro (some cell lines): can be cytotoxic to some cell lines | effect alone on microtubule protein polymerization ([4]; in the absence of monoaquocisplatin): neither mesna nor cysteine alone (in the absence of monoaquocisplatin) had any effect; also recorded: no detectable effect | effect on paclitaxel-induced hyperpolymerization of MTP ([4]; mesna alone): no detectable effect | effect on GTP promoted microtubule protein polymerization [4]: did not affect microtubule protein polymerization in an appreciable manner | effect on GTP promoted microtubule protein polymerization ([4]; listed as Mesna): does not affect | protection against monoaquocisplatin-induced loss of microtubule protein polymerization ([4]; preincubated with monoaquocisplatin (36 μM), mesna or cysteine 200 μM): prevented the monoaquocisplatin-induced loss; also recorded: able to protect | Cmax [5]: ~323 µM

Molecule: Avastin: Avastin (bevacizumab)
Survival advantage [6]: did not confer a survival advantage

Effect on initial velocity of insulin reduction relative to apo-Trx [7]: inhibitory effect
B1: Trx-mesna: Trx covalently modified by a Tavocept-derived mesna moiety (protein)
chain: T1 sequence (P10599 1-105)
modifications: Tavocept-derived mesna mixed disulfide on Cys73 and on Cys62 or Cys69 (mass spectroscopy)
notes: Trx covalently modified by a Tavocept-derived mesna moiety

Effect on initial velocity of insulin reduction relative to apo-Trx [7]: a clear effect on initial velocity
B2: Trx-GSH: Trx modified by glutathione after incubation with glutathione disulfide (protein)
chain: T1 sequence (P10599 1-105)
modifications: glutathionylated (cysteine-73 in the control reactions with glutathione)
notes: Trx modified by glutathione after incubation with glutathione disulfide
